# Measured values as given in PMC4327905 (Chemico-biological interactions, 2015).
# Where a name gives a salt, the structure may show the parent alone.
# Biological target: T1, transthyretin (Homo sapiens, UniProt P02766)
# Experiment: ANS fluorescence displacement
# Type: binding
row,Compound,Kd
1,"O=S(=O)(O)Oc1ccc(-c2ccc(Cl)cc2)c(Cl)c1 [4-PCB 8 sulfate, 2,4′-dichloro-4-sulfooxy-biphenyl]",4.3 nM

# Biological target: T1, transthyretin
# Experiment: acid-induced amyloid fibril formation, turbidity at […] nm, […] compound and […] TTR
# Type: biochemical
row,Compound,Fibril Formation (%)
1,"Oc1cccc(-c2ccc(Cl)cc2)c1 [3′-OHPCB 3, 4′-chloro-biphenyl-3-ol]",52.3 % fibril formation
2,"Oc1c(Cl)cc(-c2ccc(Cl)c(Cl)c2)cc1Cl [4′-OHPCB 79, 3,3′,4′,5-tetrachloro-biphenyl-4-ol, reference compound]",32.2 % fibril formation
3,"O=C(O)c1ccccc1Nc1cccc(C(F)(F)F)c1 [Flufenamic acid, reference compound]",22.3 % fibril formation
4,"O=S(=O)(O)Oc1ccc(-c2ccc(Cl)cc2)cc1 [4′-PCB 3 sulfate, 4-chloro-4′-sulfooxy-biphenyl]",37.2 % fibril formation
5,"O=S(=O)(O)Oc1ccc(-c2cc(Cl)ccc2Cl)cc1Cl [4′-PCB 26 sulfate, 2,3′,5-trichloro-4′-sulfooxy-biphenyl]",10.5 % fibril formation
6,"Oc1ccc(-c2cccc(Cl)c2)cc1Cl [4-OHPCB 11, 3,3′-dichloro-biphenyl-4-ol]",7.5 % fibril formation
7,"O=S(=O)(O)Oc1cccc(-c2ccc(Cl)cc2)c1 [3′-PCB 3 sulfate, 4-chloro-3′-sulfooxy-biphenyl]",30.7 % fibril formation
8,"O=S(=O)(O)Oc1ccc(-c2cccc(Cl)c2)cc1Cl [4-PCB 11 sulfate, 3,3′-dichloro-4-sulfooxy-biphenyl]",8.3 % fibril formation
9,"O=S(=O)(O)Oc1ccc(-c2ccc(Cl)c(Cl)c2)c(Cl)c1 [4-PCB 33 sulfate, 2,3′,4′-trichloro-4-sulfooxy-biphenyl]",12.7 % fibril formation
